Data: patent US6933318B1, “Topical organic ectoparasiticidal formulations” (Eli Lilly and Company, priority 1999, dated 2005)
“Also recorded” adds a separate entry of the source.

Assay: Wetting test of solvent systems on tanned rabbit pelt
Type: physicochemical
Settings: about 1 mL solvent without active ingredient, dropwise, pelt at about 45°
Experimental: To determine organic solvents that are useful spreading agents, solvent systems that are capable of solubilizing at least 1% spinosad by weight percent were screened for hair wetting by applying about 1 mL of the solvent system (solvents were screened without active ingredient), dropwise, to a tanned rabbit pelt that was at an angle of about 45°. […]

Row | Compound | Ability to wet rabbit hair
1 | CN1CCCC1=O [N-methyl pyrrolidone] | Did Not Wet
2 | CCCCOC(=O)C(C)O (stereo not shown) [butyl lactate] | Wet Well
3 | CCCCCCO [hexanol] | Wet Well
4 | C=C(C)[C@H]1CC=C(C)CC1 [limonene] | Wet Well
5 | CC(=O)OCC(COC(C)=O)OC(C)=O [triacetin] | Did Not Wet
6 | COC(C)COC(C)CO (stereo not shown) [dipropylene glycol methyl ether] | wet the hair very well; also recorded: Wet Well
7 | CC(O)CO (stereo not shown) [propylene glycol] | Did Not Wet
8 | CCCCCCCC(=O)O [octanoic acid] | Wet Well

More lines, now with the values ahead:

Row | Ability to wet rabbit hair | Compound
9 | Wet Well | CCCCCCCC/C=C\CCCCCCCC(=O)OCC [ethyl oleate]
10 | Wet Well | CCCCCCCC/C=C\CCCCCCCC(=O)OC [methyl oleate]
11 | Wet Well | CCCCCCCCCCCCCC(=O)OC(C)C [isopropyl myristate]
12 | Wet Well | CCCCCCCCCC(=O)OC [methyl caprate]
13 | Wet Well | CCCCCCCCCCCC(=O)OC [methyl laurate]
